Assays:
human V1a receptor = molecular target: T1, human V1a receptor (Homo sapiens, UniProt P37288); assay: Cellular in vitro assay for determining the vasopressin receptor activity (aequorin luminescence); format: cell-based; conditions: CHO cell line transfected with the human V1a receptor; agonist [Arg8]-vasopressin; read-out: IC50 hV1a
T1 construct: expressed in transfected cells; host or cells: CHO K1 (constitutively expressing modified aequorin)
Text: (§1) B-1. Cellular In Vitro Assay for Determining the Vasopressin Receptor Activity
(§2) The identification of agonists and antagonists of the V1a and V2 vasopressin receptors from humans and rats and also the quantification of the activity of the substances described here took place using recombinant cell lines. These cells derive originally from a hamster ovary epithelial cell (Chinese Hamster Ovary, CHO K1, ATCC: American Type Culture Collection, Manassas, Va. 20108, USA). The test cell lines constitutively express a modified form of the calcium-sensitive photoprotein aequorin, which, after reconstitution with the cofactor coelenterazine, emits light when there are increases in the free calcium concentration (Rizzuto R., Simpson A. W., Brini M., Pozzan T.; Nature 358 (1992) 325-327). In addition, the cells are stably transfected with the human or rat V1a or V2 receptors. In the case of the Gs-coupling V2 receptors, the cells are stably transfected with a further gene, which codes for the promiscuous Gα16 protein (Amatruda T. T., Steele D. A., Slepak V. Z., Simon M. I., Proc. Nat. Acad. Sci. USA 88 (1991), 5587-5591), either independently or as a fusion gene. The resulting vasopressin receptor test cells react to stimulation of the recombinantly expressed vasopressin receptors by intracellular release of calcium ions, which can be quantified by the resulting aequorin luminescence using a suitable luminometer (Milligan G., Marshall F., Rees S., Trends in Pharmaco. Sci. 17 (1996) 235-237).
(§3) On the day before the assay, the cells are plated out in culture medium (DMEM, 10% FCS, 2 mM glutamine, 10 mM HEPES) in 384-well microtiter plates and kept in a cell incubator (96% humidity, 5% v/v carbon dioxide, 37° C.). On the day of the assay, the culture medium is replaced by a Tyrode solution (140 mM sodium chloride, 5 mM potassium chloride, 1 mM magnesium chloride, 2 mM calcium chloride, 20 mM glucose, 20 mM HEPES), which additionally contains the cofactor coelenterazine (50 μM), and the microtiter plate is then incubated for a further 3-4 hours. The test substances in various concentrations are placed for 10 to 20 minutes in the wells of the microtiter plate before the agonist [Arg8]-vasopressin is added, and the resulting light signal is measured immediately in the luminometer. The IC50 values are calculated using the GraphPad PRISM computer program (Version 3.02).
(§4) The table below lists representative IC50 values for the compounds of the invention on the cell line transfected with the human V1a or V2 receptor: […]

human V2 receptor = molecular target: T2, human V2 receptor (Homo sapiens, UniProt P30518); assay: as above; format: cell-based; conditions: CHO cell line transfected with the human V2 receptor (and Gα16); agonist [Arg8]-vasopressin; read-out: IC50 hV2
T2 construct: expressed in transfected cells; host or cells: CHO K1 (constitutively expressing modified aequorin; co-transfected with promiscuous G-alpha-16)
Text: as §1, §2, §3, §4

T2 sequence (P30518 whole entry): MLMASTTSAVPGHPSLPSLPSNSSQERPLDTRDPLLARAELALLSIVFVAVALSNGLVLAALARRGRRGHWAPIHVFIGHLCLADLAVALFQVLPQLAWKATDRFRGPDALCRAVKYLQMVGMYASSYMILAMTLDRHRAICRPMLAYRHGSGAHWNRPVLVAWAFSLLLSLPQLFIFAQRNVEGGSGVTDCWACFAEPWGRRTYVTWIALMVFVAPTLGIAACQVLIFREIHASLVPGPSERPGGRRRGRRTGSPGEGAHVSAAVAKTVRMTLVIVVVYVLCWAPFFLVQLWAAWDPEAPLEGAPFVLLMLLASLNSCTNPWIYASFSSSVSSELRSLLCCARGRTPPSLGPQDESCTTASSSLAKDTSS
T1 sequence (P37288 whole entry): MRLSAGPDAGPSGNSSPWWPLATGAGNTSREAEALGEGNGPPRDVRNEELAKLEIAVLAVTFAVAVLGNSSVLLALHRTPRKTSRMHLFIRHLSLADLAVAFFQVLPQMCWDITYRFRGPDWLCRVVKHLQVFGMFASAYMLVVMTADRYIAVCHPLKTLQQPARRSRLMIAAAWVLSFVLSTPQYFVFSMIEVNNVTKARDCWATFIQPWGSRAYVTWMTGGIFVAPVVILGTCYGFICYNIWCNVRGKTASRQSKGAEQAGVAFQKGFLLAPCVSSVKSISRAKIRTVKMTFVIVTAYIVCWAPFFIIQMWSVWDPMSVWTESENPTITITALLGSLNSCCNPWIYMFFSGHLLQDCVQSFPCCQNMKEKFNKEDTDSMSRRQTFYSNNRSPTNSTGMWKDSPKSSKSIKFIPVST

Row | Compound | IC50 (human V1a receptor) | IC50 (human V2 receptor)
1 | NC(=O)OCC(NC(=O)Cn1nc(-c2ccc(Cl)cc2)n(Cc2ccccc2F)c1=O)c1ccccc1C(F)(F)F (single isomer, unassigned) [Example 191, 2-({[3-(4-Chlorophenyl)-4-(2-fluorobenzyl)-5-oxo-4,5-dihydro-1H-1,2,4-triazol-1-yl]acetyl}amino)-2-[2-(trifluoromethyl)phenyl]ethyl carbamate] | 2.3 nM | 24.8 nM
2 | O=C(Cn1nc(-c2ccc(Cl)cc2)n(C[C@H](O)C(F)(F)F)c1=O)NC(c1cccc(C(F)(F)F)c1)C(O)C(F)(F)F (mixture of isomers) [Example 78, 2-{3-(4-Chlorophenyl)-5-oxo-4-[(2S)-3,3,3-trifluoro-2-hydroxypropyl]-4,5-dihydro-1H-1,2,4-triazol-1-yl}-N-{3,3,3-trifluoro-2-hydroxy-1-[3-(trifluoromethyl)phenyl]propyl}acetamide] | 21.1 nM | 30.4 nM
3 | CS(=O)(=O)NCC(NC(=O)Cn1nc(-c2ccc(Cl)cc2)n(C[C@H](O)C(F)(F)F)c1=O)c1ccccc1C(F)(F)F (single isomer, unassigned; diastereomer ii) [Example 26] | 0.9 nM | 3.2 nM
4 | O=C(Cn1nc(-c2ccc(Cl)cc2)n(C[C@H](O)C(F)(F)F)c1=O)NC(C[N+](=O)[O-])c1cccc(C(F)(F)F)c1 (single isomer, unassigned; diastereomer i) [Example 2] | 7.6 nM | 2.6 nM
5 | CC(=O)NCC(NC(=O)Cn1nc(-c2ccc(Cl)cc2)n(C[C@H](O)C(F)(F)F)c1=O)c1cccc(C(F)(F)F)c1 (mixture of isomers) [Example 20, N-{2-(Acetylamino)-1-[3-(trifluoromethyl)phenyl]ethyl}-2-{3-(4-chlorophenyl)-5-oxo-4-[(2S)-3,3,3-trifluoro-2-hydroxypropyl]-4,5-dihydro-1H-1,2,4-triazol-1-yl}acetamide (diastereomer mixture)] | 1.5 nM | 6.3 nM
6 | CN(C)S(=O)(=O)CC(NC(=O)Cn1nc(-c2ccc(Cl)cc2)n(C[C@H](O)C(F)(F)F)c1=O)c1cccc(C(F)(F)F)c1 (single isomer, unassigned) [Example 141] | 36 nM | 4.8 nM
7 | O=C(Cn1nc(-c2ccc(Cl)cc2)n(Cc2ccccc2F)c1=O)NC(CO)c1cccc(F)c1F (stereo not shown) [Example 184] | 72 nM | 26.6 nM
8 | O=C(Cn1nc(-c2ccc(Cl)cc2)n(CC2CCCCC2)c1=O)NC(CO)c1cccc(Cl)c1F (stereo not shown) [Example 182] | 304 nM | 28 nM
9 | CS(=O)(=O)NCC(NC(=O)Cn1nc(-c2ccc(Cl)cc2)n(C[C@H](O)C(F)(F)F)c1=O)c1cccc(C(F)(F)F)c1 (single isomer, unassigned; diastereomer ii) [Example 24] | 4.5 nM | 1.3 nM
10 | O=C(Cn1nc(-c2ccc(Cl)cc2)n(C[C@H](O)C(F)(F)F)c1=O)NC(CO)c1ccccc1C(F)(F)F (single isomer, unassigned; diastereomer i) [Example 39] | 1.4 nM | 7.8 nM
11 | O=C(Cn1nc(-c2ccc(Cl)cc2)n(C[C@H](O)C(F)(F)F)c1=O)NC(CO)c1cccc(F)c1F (stereo partly drawn) [Example 95, 2-{3-(4-Chlorophenyl)-5-oxo-4-[(2S)-3,3,3-trifluoro-2-hydroxypropyl]-4,5-dihydro-1H-1,2,4-triazol-1-yl}-N-[1-(2,3-difluorophenyl)-2-hydroxyethyl]acetamide] | 57.3 nM | 19.2 nM
12 | NC(=O)OCC(NC(=O)Cn1nc(-c2ccc(Cl)cc2)n(/C=C/C(F)(F)F)c1=O)c1cccc(C(F)(F)F)c1 (single isomer, unassigned) [Example 65, 2-[({3-(4-Chlorophenyl)-5-oxo-4-[(1E)-3,3,3-trifluoroprop-1-en-1-yl]-4,5-dihydro-1H-1,2,4-triazol-1-yl}acetyl)amino]-2-[3-(trifluoromethyl)phenyl]ethyl carbamate] | 16.8 nM | 16.8 nM
13 | CS(=O)(=O)NCC(NC(=O)Cn1nc(-c2ccc(Cl)cc2)n(C[C@H](O)C(F)(F)F)c1=O)c1ccccc1Cl (single isomer, unassigned) [Example 126] | 1.8 nM | 1.8 nM
14 | COC(=O)NCC(NC(=O)Cn1nc(-c2ccc(Cl)cc2)n(CCC(F)(F)F)c1=O)c1cccc(Cl)c1Cl (single isomer, unassigned) [Example 115, Methyl [2-({[3-(4-chlorophenyl)-5-oxo-4-(3,3,3-trifluoropropyl)-4,5-dihydro-1H-1,2,4-triazol-1-yl]acetyl}amino)-2-(2,3-dichlorophenyl)ethyl]carbamate] | 3.5 nM | 7.6 nM
15 | NC(=O)OCC[C@H](NC(=O)Cn1nc(-c2ccc(Cl)cc2)n(C[C@H](O)C(F)(F)F)c1=O)c1ccccc1C(F)(F)F [Example 70, (3S)-3-[({3-(4-Chlorophenyl)-5-oxo-4-[(2S)-3,3,3-trifluoro-2-hydroxypropyl]-4,5-dihydro-1H-1,2,4-triazol-1-yl}acetyl)amino]-3-[2-(trifluoromethyl)phenyl]propyl carbamate] | 1.6 nM | 9.9 nM
16 | NC(=O)NCC(NC(=O)Cn1nc(-c2ccc(Cl)cc2)n(C[C@H](O)C(F)(F)F)c1=O)c1ccccc1C(F)(F)F (single isomer, unassigned) [Example 60] | 0.5 nM | 4.5 nM
17 | CSCC(NC(=O)Cn1nc(-c2ccc(Cl)cc2)n(C[C@H](O)C(F)(F)F)c1=O)c1ccccc1C(F)(F)F (single isomer, unassigned) [Example 156] | 1.9 nM | 10 nM
18 | O=C(Cn1nc(-c2ccc(Cl)cc2)n(C[C@H](O)C(F)(F)F)c1=O)NC(CN1CCNC1=O)c1cccc(C(F)(F)F)c1 (single isomer, unassigned) [Example 152] | 2.2 nM | 7.1 nM
19 | Cc1cccc([C@H](CO)NC(=O)Cn2nc(-c3ccc(Cl)cc3)n(C[C@H](O)C(F)(F)F)c2=O)c1C [Example 74, 2-{3-(4-Chlorophenyl)-5-oxo-4-[(2S)-3,3,3-trifluoro-2-hydroxypropyl]-4,5-dihydro-1H-1,2,4-triazol-1-yl}-N-[(1R)-1-(2,3-dimethylphenyl)-2-hydroxyethyl]acetamide] | 21.6 nM | 2.4 nM
20 | O=C(Cn1nc(-c2ccc(Cl)cc2)n(C[C@H](O)C(F)(F)F)c1=O)NC(c1ccccc1)C(O)C(F)(F)F (stereo partly drawn) [Example 94, 2-{3-(4-Chlorophenyl)-5-oxo-4-[(2S)-3,3,3-trifluoro-2-hydroxypropyl]-4,5-dihydro-1H-1,2,4-triazol-1-yl}-N-(3,3,3-trifluoro-2-hydroxy-1-phenylpropyl)acetamide] | 251 nM | 72.3 nM
21 | NC(=O)NCC(NC(=O)Cn1nc(-c2ccc(Cl)cc2)n(C[C@H](O)C(F)(F)F)c1=O)c1cccc(Cl)c1Cl (single isomer, unassigned) [Example 62] | 3.6 nM | 1 nM
22 | O=C(Cn1nc(-c2ccc(Cl)cc2)n(C[C@H](O)C(F)(F)F)c1=O)NC(CN1CCOC1=O)c1cccc(C(F)(F)F)c1 (single isomer, unassigned) [Example 149] | 2 nM | 15 nM
23 | NC(=O)OCC(NC(=O)Cn1nc(-c2ccc(Cl)cc2)n(C[C@H](O)C(F)(F)F)c1=O)c1ccccc1C(F)(F)F (single isomer, unassigned) [Example 51] | 1 nM | 8.5 nM
24 | O=C(Cn1nc(-c2ccc(Cl)cc2)n(C[C@H](O)C(F)(F)F)c1=O)NC(CC(F)(F)F)c1ccccc1 (stereo partly drawn) [Example 90, 2-{3-(4-Chlorophenyl)-5-oxo-4-[(2S)-3,3,3-trifluoro-2-hydroxypropyl]-4,5-dihydro-1H-1,2,4-triazol-1-yl}-N-(3,3,3-trifluoro-1-phenylpropyl)acetamide] | 88.6 nM | 231 nM
25 | NC(=O)NCC(NC(=O)Cn1nc(-c2ccc(Cl)cc2)n(C[C@H](O)C(F)(F)F)c1=O)c1cccc(C(F)(F)F)c1 (single isomer, unassigned) [Example 57] | 2.9 nM | 2.2 nM
26 | NS(=O)(=O)OCC(NC(=O)Cn1nc(-c2ccc(Cl)cc2)n(C[C@H](O)C(F)(F)F)c1=O)c1cccc(C(F)(F)F)c1 (stereo partly drawn) [Example 159, 2-[({3-(4-Chlorophenyl)-5-oxo-4-[(2S)-3,3,3-trifluoro-2-hydroxypropyl]-4,5-dihydro-1H-1,2,4-triazol-1-yl}acetyl)amino]-2-[3-(trifluoromethyl)phenyl]ethyl sulphamate] | 4.3 nM | 1.8 nM
